pEC50, pIC50: −log10 of the molar value. Where two headings read alike, the source gives them in different places.
Assays:
AR / CBP ternary complex = AR / CBP ternary complex (Homo sapiens, UniProt P10275+Q92793); test: Ternary complex formation assay (sandwich ELISA, AR capture, CBP antibody detection) in VCaP cell lysates; format: cell-based
Method in brief: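 Sandwich ELISA: plates were coated with anti-AR antibody (AR441) and given lysates of VCaP cells treated 1.5 h with bifunctional compound in charcoal-stripped serum. Co-captured CBP or p300 was probed with rabbit mAbs and HRP secondary. Chemifluorescent signal (ex 570/em 585) was read at 0, 5 and 15 min.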

VCaP cells = test: VCaP growth inhibition assay (CTG); format: cell-based; conditions: Homo sapiens, 216 h, 30 pM R1881, 9 days
Method in brief: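 Growth was measured by CTG luminescence after a 9-day exposure of VCaP cells to compound (final 10 fM–100 nM, fivefold steps) in the presence of 30 pM final R1881, in phenol red-free DMEM/5% CSS. IC50 values were derived by nonlinear 4-parameter regression of RLU against concentration.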

[1] = treated 1.5 hours, rabbit CBP or p300 antibody detection, average, read-out: Average Ternary Complex
[2] = read-out: Average Ternary Complex, treated 1.5 hours, rabbit CBP or p300 antibody detection

AR / CBP ternary complex, sequence (P10275 whole entry): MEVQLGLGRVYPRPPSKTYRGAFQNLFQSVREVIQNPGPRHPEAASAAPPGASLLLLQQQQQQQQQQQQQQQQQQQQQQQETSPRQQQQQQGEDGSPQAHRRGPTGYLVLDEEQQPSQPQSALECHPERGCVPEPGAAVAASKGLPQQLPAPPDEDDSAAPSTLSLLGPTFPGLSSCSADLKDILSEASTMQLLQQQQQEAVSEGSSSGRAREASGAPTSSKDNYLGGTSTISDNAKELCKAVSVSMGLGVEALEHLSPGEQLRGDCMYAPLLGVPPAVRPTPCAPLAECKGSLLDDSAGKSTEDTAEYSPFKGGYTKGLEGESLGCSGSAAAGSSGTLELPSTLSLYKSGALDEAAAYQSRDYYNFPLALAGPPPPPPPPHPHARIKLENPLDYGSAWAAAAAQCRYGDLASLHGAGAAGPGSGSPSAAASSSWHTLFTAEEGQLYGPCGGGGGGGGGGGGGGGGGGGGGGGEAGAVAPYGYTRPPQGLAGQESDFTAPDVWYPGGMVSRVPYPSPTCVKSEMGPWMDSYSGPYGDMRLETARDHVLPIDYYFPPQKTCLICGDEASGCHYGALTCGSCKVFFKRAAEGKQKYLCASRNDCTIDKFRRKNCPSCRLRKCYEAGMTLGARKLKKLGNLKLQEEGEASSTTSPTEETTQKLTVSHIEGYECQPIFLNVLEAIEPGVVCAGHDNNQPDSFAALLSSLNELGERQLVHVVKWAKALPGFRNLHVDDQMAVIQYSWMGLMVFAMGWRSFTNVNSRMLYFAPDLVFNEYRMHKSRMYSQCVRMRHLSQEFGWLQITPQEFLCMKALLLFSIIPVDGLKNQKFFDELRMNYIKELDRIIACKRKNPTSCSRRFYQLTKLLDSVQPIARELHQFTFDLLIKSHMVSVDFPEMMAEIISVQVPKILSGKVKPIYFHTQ
AR / CBP ternary complex, sequence (Q92793 2-2442): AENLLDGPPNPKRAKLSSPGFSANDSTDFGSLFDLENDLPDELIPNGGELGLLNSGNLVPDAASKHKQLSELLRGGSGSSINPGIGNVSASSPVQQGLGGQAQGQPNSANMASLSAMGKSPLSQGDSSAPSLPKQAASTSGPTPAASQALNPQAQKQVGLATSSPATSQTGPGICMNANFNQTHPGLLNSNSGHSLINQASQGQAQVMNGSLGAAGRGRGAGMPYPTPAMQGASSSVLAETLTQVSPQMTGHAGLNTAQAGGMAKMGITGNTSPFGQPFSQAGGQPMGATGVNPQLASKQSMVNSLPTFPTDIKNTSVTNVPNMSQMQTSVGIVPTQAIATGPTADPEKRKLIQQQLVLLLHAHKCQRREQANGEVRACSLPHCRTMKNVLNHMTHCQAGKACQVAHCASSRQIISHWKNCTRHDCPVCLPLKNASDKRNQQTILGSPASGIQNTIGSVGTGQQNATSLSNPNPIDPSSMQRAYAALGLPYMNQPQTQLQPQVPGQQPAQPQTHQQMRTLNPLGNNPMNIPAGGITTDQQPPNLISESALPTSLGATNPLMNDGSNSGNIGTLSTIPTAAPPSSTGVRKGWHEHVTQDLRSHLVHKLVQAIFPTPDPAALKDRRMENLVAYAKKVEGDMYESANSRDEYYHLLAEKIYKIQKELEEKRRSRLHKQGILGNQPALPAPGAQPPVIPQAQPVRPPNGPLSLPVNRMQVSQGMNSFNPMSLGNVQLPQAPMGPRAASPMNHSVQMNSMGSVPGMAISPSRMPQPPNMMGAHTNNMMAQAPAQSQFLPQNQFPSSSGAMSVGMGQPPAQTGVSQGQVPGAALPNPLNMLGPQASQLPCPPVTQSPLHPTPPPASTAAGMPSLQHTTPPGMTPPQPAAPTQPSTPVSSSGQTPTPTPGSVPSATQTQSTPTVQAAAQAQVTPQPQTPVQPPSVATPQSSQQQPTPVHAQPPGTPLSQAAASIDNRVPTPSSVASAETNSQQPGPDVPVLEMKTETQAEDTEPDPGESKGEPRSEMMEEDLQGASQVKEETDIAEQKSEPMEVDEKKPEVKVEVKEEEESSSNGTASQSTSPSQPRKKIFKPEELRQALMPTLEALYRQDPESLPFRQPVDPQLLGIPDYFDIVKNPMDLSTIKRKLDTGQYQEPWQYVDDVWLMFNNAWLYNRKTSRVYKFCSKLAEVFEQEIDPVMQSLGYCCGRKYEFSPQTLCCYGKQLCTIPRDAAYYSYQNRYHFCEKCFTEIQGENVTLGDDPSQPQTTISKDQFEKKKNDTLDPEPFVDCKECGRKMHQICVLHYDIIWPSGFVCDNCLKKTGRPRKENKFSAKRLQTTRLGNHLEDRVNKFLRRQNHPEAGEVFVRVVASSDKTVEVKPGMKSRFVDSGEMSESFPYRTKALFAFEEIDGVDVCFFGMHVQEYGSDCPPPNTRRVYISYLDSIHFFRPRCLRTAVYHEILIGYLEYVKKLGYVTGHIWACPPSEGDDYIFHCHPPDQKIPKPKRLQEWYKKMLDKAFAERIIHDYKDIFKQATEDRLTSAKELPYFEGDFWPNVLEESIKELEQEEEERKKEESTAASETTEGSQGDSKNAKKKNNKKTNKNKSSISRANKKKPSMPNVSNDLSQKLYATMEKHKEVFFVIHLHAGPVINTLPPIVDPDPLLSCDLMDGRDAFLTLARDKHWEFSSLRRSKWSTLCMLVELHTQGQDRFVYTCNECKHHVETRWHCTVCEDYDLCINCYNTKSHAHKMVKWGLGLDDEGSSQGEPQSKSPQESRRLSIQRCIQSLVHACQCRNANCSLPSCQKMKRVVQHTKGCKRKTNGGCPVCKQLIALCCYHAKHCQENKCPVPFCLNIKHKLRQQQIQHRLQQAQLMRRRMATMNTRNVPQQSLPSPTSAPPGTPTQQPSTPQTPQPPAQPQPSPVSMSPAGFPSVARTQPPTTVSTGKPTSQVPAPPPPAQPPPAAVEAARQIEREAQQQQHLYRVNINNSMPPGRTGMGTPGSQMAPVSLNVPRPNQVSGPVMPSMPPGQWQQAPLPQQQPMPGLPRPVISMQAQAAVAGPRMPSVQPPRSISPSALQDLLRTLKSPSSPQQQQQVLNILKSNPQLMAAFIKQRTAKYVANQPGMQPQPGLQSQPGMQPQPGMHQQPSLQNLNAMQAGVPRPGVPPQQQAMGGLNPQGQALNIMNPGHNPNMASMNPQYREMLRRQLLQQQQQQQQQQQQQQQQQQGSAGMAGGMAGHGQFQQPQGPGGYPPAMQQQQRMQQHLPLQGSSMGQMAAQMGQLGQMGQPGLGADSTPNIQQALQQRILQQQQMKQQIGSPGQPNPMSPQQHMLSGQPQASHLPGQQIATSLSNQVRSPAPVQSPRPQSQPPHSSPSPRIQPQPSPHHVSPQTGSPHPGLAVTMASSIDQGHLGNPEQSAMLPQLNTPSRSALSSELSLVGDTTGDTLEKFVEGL

Row | Structure (SMILES) | pEC50 (AR / CBP ternary complex; [1]) | pIC50 (VCaP cells) | pEC50 (AR / CBP ternary complex; [2])
1 | CC(=O)N1CCc2c(c(N3CCCc4cc(C5CC5)ncc43)nn2C2CCN(CC3CCN(c4ccc(C(=O)N[C@H]5CC[C@H](Oc6ccc(C#N)c(Cl)c6)CC5)nn4)CC3)CC2)C1 [Compound 108, 6-[4-[[4-[5-acetyl-3-(6-cyclopropyl-3,4-dihydro-2H-1,7-naphthyridin-1-yl)-6,7-dihydro-4H-pyrazolo[4,3-c]pyridin-1-yl]-1-piperidyl]methyl]-1-piperidyl]-N-[4-(3-chloro-4-cyano-phenoxy)cyclohexyl]pyridazine-3-carboxamide] | 8.00 to 9.00 | 9.00 to 10.00 | –
2 | COc1cc2c(cn1)N(c1nn(C3CCN(CC4CCN(c5ccc(C(=O)N[C@H]6CC[C@H](Oc7ccc(C#N)c(Cl)c7)CC6)nn5)CC4)CC3)c3c1CN(C(C)=O)CC3)CCC2 [Compound 109, 6-[4-[[4-[5-acetyl-3-(6-methoxy-3,4-dihydro-2H-1,7-naphthyridin-1-yl)-6,7-dihydro-4H-pyrazolo[4,3-c]pyridin-1-yl]-1-piperidyl]methyl]-1-piperidyl]-N-[4-(3-chloro-4-cyano-phenoxy)cyclohexyl]pyridazine-3-carboxamide] | 7.00 to 8.00 | 9.00 to 10.00 | –
3 | CC(=O)N1CCc2c(c(N3CCCc4cc(C#N)ccc43)nn2C2CCC3(CC2)CCN(c2ccc(C(=O)N[C@H]4CC[C@H](Oc5ccc(C#N)c(Cl)c5)CC4)nn2)CC3)C1 [Compound 113, 6-[9-[5-acetyl-3-(6-cyano-3,4-dihydro-2H-quinolin-1-yl)-6,7-dihydro-4H-pyrazolo[4,3-c]pyridin-1-yl]-3-azaspiro[5.5]undecan-3-yl]-N-[4-(3-chloro-4-cyano-phenoxy)cyclohexyl]pyridazine-3-carboxamide] | > 9.00 | 9.00 to 10.00 | –
4 | CC(=O)N1CCc2c(c(N3CCCc4cc(-c5cnn(C)c5)c(C(F)F)cc43)nn2C2CCN(CC3C4CC3CN(c3ccc(C(=O)N[C@H]5CC[C@H](Oc6ccc(C#N)c(Cl)c6)CC5)nn3)C4)CC2)C1 (some centres unmarked) [Compound 118, 6-[6-[[4-[5-acetyl-3-[7-(difluoromethyl)-6-(1-methylpyrazol-4-yl)-3,4-dihydro-2H-quinolin-1-yl]-6,7-dihydro-4H-pyrazolo[4,3-c]pyridin-1-yl]-1-piperidyl]methyl]-3-azabicyclo [3.1.1]heptan-3-yl]-N-[4-(3-chloro-4-cyano-phenoxy)cyclohexyl] pyridazine-3-carboxamide] | – | 9.00 to 10.00 | > 9.00
5 | CC(=O)N1CCc2c(c(-c3cccc4ccncc34)nn2C2CCN(CC3CCN(c4ccc(C(=O)N[C@H]5CC[C@H](Oc6ccc(C#N)c(Cl)c6)CC5)nn4)CC3)CC2)C1 [Compound 120, 6-[4-[[4-[5-acetyl-3-(8-isoquinolyl)-6,7-dihydro-4H-pyrazolo[4,3-c]pyridin-1-yl]-1-piperidyl]methyl]-1-piperidyl]-N-[4-(3-chloro-4-cyano-phenoxy)cyclohexyl]pyridazine-3-carboxamide] | > 9.00 | 9.00 to 10.00 | –
6 | CC(=O)N1CCc2c(c(-c3cccc4cc(C#N)ncc34)nn2C2CCN(CC3CCN(c4ccc(C(=O)N[C@H]5CC[C@H](Oc6ccc(C#N)c(Cl)c6)CC5)nn4)CC3)CC2)C1 [Compound 121, 6-[4-[[4-[5-acetyl-3-(3-cyano-8-isoquinolyl)-6,7-dihydro-4H-pyrazolo[4,3-c]pyridin-1-yl]-1-piperidyl]methyl]-1-piperidyl]-N-[4-(3-chloro-4-cyano-phenoxy)cyclohexyl]pyridazine-3-carboxamide] | > 9.00 | 9.00 to 10.00 | –
7 | CC(=O)N1CCc2c(c(-c3cccc4cc(C)ncc34)nn2C2CCN(CC3CCN(c4ccc(C(=O)N[C@H]5CC[C@H](Oc6ccc(C#N)c(Cl)c6)CC5)nn4)CC3)CC2)C1 [Compound 122, -[4-[[4-[5-acetyl-3-(3-methyl-8-isoquinolyl)-6,7-dihydro-4H-pyrazolo[4,3-c]pyridin-1-yl]-1-piperidyl]methyl]-1-piperidyl]-N-[4-(3-chloro-4-cyano-phenoxy)cyclohexyl]pyridazine-3-carboxamide] | > 9.00 | 9.00 to 10.00 | –
8 | CC(=O)N1CCc2c(c(-c3cccc4cc(C5CC5)ncc34)nn2C2CCN(CC3CCN(c4ccc(C(=O)N[C@H]5CC[C@H](Oc6ccc(C#N)c(Cl)c6)CC5)nn4)CC3)CC2)C1 [Compound 123, 6-[4-[[4-[5-acetyl-3-(3-cyclopropyl-8-isoquinolyl)-6,7-dihydro-4H-pyrazolo[4,3-c]pyridin-1-yl]-1-piperidyl]methyl]-1-piperidyl]-N-[4-(3-chloro-4-cyano-phenoxy)cyclohexyl]pyridazine-3-carboxamide] | > 9.00 | 9.00 to 10.00 | –
9 | CC(=O)N1CCc2c(c(N3CCCc4cc(-c5cnn(C)c5)c(C(F)F)cc43)nn2C2CCN(CC3CC4CCC(C3)N4c3ccc(C(=O)N[C@H]4CC[C@H](Oc5ccc(C#N)c(Cl)c5)CC4)nn3)CC2)C1 (some centres unmarked) [Compound 126, 6-[3-[[4-[5-acetyl-3-[7-(difluoromethyl)-6-(1-methylpyrazol-4-yl)-3,4-dihydro-2H-quinolin-1-yl]-6,7-dihydro-4H-pyrazolo[4,3-c]pyridin-1-yl]-1-piperidyl]methyl]-8-azabicyclo[3.2.1]octan-8-yl]-N-[4-(3-chloro-4-cyano-phenoxy)cyclohexyl]pyridazine-3-carboxamide] | – | ≥ 10.00 | > 9.00
10 | Cc1noc(C)c1-c1ccc2c(c1)nc(C1CCCC(=O)N1c1ccc(F)c(F)c1)n2C1CCN(CC2CCN(c3ccc(C(=O)N[C@H]4CC[C@H](Oc5ccc(C#N)c(Cl)c5)CC4)nn3)CC2)CC1 (some centres unmarked) [Compound 127, N-[4-(3-chloro-4-cyano-phenoxy)cyclohexyl]-6-[4-[[4-[2-[1-(3,4-difluorophenyl)-6-oxo-2-piperidyl]-5-(3,5-dimethylisoxazol-4-yl)benzimidazol-1-yl]-1-piperidyl]methyl]-1-piperidyl]pyridazine-3-carboxamide] | < 7.00 | < 7.00 | –
11 | CC(=O)N1CCc2c(c(N3CCCc4cc(-c5cnn(C)c5)c(C(F)F)cc43)nn2CC2CC3(CCN(c4ccc(C(=O)N[C@H]5CC[C@H](Oc6ccc(C#N)c(Cl)c6)CC5)nn4)CC3)C2)C1 [Compound 130, 6-[2-[[5-acetyl-3-[7-(difluoromethyl)-6-(1-methylpyrazol-4-yl)-3,4-dihydro-2H-quinolin-1-yl]-6,7-dihydro-4H-pyrazolo[4,3-c]pyridin-1-yl]methyl]-7-azaspiro[3.5]nonan-7-yl]-N-[4-(3-chloro-4-cyano-phenoxy)cyclohexyl]pyridazine-3-carboxamide] | < 7.00 | 9.00 to 10.00 | –

Second part, led by results:

Row | pEC50 (AR / CBP ternary complex; [1]) | pIC50 (VCaP cells) | Structure (SMILES) | pEC50 (AR / CBP ternary complex; [2])
12 | > 9.00 | 9.00 to 10.00 | CC(=O)N1CCc2c(c(N3CCCc4cc(C#N)ccc43)nn2C2CCN(CC3(C)CCN(c4ccc(C(=O)N[C@H]5CC[C@H](Oc6ccc(C#N)c(Cl)c6)CC5)nn4)CC3)CC2)C1 [Compound 102, 6-[4-[[4-[5-acetyl-3-(6-cyano-3,4-dihydro-2H-quinolin-1-yl)-6,7-dihydro-4H-pyrazolo[4,3-c]pyridin-1-yl]-1-piperidyl]methyl]-4-methyl-1-piperidyl]-N-[4-(3-chloro-4-cyano-phenoxy)cyclohexyl]pyridazine-3-carboxamide] | –
13 | > 9.00 | 9.00 to 10.00 | CC(=O)N1CCc2c(c(N3CCCc4cc(C#N)ccc43)nn2C2CCN(C[C@H]3CCN(c4ccc(C(=O)N[C@H]5CC[C@H](Oc6ccc(C#N)c(Cl)c6)CC5)nn4)C[C@H]3C)CC2)C1 [Compound 103, 6-[4-[[4-[5-acetyl-3-(6-cyano-3,4-dihydro-2H-quinolin-1-yl)-6,7-dihydro-4H-pyrazolo[4,3-c]pyridin-1-yl]-1-piperidyl]methyl]-3-methyl-1-piperidyl]-N-[4-(3-chloro-4-cyano-phenoxy)cyclohexyl] pyridazine-3-carboxamide] | –
14 | > 9.00 | ≥ 10.00 | CC(=O)N1CCc2c(c(N3CCCc4cc(-c5cnn(C)c5)c(C(F)F)cc43)nn2C2CCN(C[C@H]3CCN(c4ccc(C(=O)N[C@H]5CC[C@H](Oc6ccc(C#N)c(Cl)c6)CC5)nn4)C[C@@H]3C)CC2)C1 [Compound 104, 6-[4-[[4-[5-acetyl-3-[7-(difluoromethyl)-6-(1-methylpyrazol-4-yl)-3,4-dihydro-2H-quinolin-1-yl]-6,7-dihydro-4H-pyrazolo[4,3-c]pyridin-1-yl]-1-piperidyl]methyl]-3-methyl-1-piperidyl]-N-[4-(3-chloro-4-cyano-phenoxy)cyclohexyl]pyridazine-3-carboxamide] | –
15 | > 9.00 | ≥ 10.00 | CC(=O)N1CCc2c(c(N3CCCc4cc(C)ncc43)nn2C2CCN(CC3CCN(c4ccc(C(=O)N[C@H]5CC[C@H](Oc6ccc(C#N)c(Cl)c6)CC5)nn4)CC3)CC2)C1 [Compound 107, 6-[4-[[4-[5-acetyl-3-(6-methyl-3,4-dihydro-2H-1,7-naphthyridin-1-yl)-6,7-dihydro-4H-pyrazolo[4,3-c]pyridin-1-yl]-1-piperidyl]methyl]-1-piperidyl]-N-[4-(3-chloro-4-cyano-phenoxy)cyclohexyl]pyridazine-3-carboxamide] | –
16 | > 9.00 | 9.00 to 10.00 | CC(=O)N1CCc2c(c(N3CCCc4cc(-c5cnn(C)c5)c(C(F)F)cc43)nn2C2CCC3(CC2)CCN(c2ccc(C(=O)N[C@H]4CC[C@H](Oc5ccc(C#N)c(Cl)c5)CC4)nn2)CC3)C1 [Compound 112, 6-[9-[5-acetyl-3-[7-(difluorodimethyl)-6-(1-methylpyrazol-4-yl)-3,4-dihydro-2H-quinolin-1-yl]-6,7-dihydro-4H-pyrazolo[4,3-c]pyridin-1-yl]-3-azaspiro[5.5]undecan-3-yl]-N-[4-(3-chloro-4-cyano-phenoxy)cyclohexyl]pyridazine-3-carboxamide] | –

From patent US20250136578A1 (Kolm Therapeutics Inc., priority 2023, published 2025)
